In patent US10562898B2, “Substituted benzenesulfonamides as inhibitors of alpha-4 beta-7 integrin activity” (EA PHARMA CO., LTD., priority 2016, dated 2020):

target: T1, α4β7 integrin (Homo sapiens, UniProt P13612+P26010); experiment: MAdCAM-1/α4β7 integrin binding inhibitory activity evaluation test in presence of serum; assay type: cell-based; conditions: RPMI-8866 cells, recombinant mouse MAdCAM-1/Fc, 50% human serum; read-out: α4β7 Serum Added IC50
T1 construct: a cell line RPMI-8866, which is known to express α4β7 integrin; endogenous in cells; host or cells: RPMI-8866 (human B cell line)
T1 sequence (P13612 34-1032): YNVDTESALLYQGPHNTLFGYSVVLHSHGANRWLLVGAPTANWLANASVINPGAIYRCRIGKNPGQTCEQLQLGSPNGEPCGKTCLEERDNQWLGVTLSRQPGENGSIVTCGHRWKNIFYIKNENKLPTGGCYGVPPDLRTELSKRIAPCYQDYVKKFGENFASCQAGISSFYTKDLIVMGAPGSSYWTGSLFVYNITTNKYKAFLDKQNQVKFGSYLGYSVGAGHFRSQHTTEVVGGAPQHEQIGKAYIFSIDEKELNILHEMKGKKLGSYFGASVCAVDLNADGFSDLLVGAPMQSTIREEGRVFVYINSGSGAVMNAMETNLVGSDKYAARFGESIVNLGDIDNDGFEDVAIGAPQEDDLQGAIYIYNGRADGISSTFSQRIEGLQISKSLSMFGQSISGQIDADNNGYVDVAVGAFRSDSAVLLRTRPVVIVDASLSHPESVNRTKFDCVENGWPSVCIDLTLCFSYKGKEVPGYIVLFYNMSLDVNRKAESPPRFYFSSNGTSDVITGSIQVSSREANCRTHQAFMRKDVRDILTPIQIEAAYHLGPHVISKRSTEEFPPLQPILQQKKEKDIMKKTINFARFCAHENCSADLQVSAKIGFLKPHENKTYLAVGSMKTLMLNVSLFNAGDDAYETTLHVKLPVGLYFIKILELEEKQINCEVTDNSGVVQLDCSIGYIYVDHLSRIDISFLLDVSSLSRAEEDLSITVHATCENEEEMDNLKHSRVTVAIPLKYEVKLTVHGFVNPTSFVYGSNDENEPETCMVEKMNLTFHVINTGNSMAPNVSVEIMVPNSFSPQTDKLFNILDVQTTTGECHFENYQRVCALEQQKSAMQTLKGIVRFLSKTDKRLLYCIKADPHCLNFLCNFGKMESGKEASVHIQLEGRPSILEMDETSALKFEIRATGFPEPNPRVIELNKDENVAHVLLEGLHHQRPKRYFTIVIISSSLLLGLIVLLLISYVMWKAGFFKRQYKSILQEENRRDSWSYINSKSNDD
T1 sequence (P26010 20-798): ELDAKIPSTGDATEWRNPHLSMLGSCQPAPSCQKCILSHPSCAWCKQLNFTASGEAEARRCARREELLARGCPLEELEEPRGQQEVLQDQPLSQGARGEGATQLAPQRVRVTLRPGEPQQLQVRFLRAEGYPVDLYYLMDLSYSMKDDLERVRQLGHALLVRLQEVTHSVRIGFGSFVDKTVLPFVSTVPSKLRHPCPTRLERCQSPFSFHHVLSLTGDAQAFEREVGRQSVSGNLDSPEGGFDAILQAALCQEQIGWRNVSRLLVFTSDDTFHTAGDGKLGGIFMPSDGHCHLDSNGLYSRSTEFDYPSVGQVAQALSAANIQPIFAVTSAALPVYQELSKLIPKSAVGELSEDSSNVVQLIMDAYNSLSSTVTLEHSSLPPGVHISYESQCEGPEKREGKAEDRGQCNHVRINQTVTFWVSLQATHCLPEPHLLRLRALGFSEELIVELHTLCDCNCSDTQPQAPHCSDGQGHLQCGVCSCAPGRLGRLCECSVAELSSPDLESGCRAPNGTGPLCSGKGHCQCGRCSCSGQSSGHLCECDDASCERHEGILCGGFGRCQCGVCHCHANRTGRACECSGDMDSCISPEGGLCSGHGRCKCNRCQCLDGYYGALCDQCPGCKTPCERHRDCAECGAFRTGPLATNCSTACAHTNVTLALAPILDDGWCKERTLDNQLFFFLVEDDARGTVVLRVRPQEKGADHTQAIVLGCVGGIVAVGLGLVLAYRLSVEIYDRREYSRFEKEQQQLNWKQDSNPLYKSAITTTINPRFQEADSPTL
Protocol: (3) MAdCAM-1/α4β7 Integrin Binding Inhibitory Activity Evaluation Test in Presence of Serum (1)
Each test substance was measured in terms of an ability to inhibit the MAdCAM-1 binding of a human B cell line, namely, a cell line RPMI-8866, which is known to express α4β7 integrin.
A solution of recombinant mouse MAdCAM-1/Fc (R&D Systems, Inc.) (1 μg/mL) diluted with a buffer A (carbonate buffer, pH 9.6) was added in an amount of 50 μL/well to a 96-well microtiter plate, followed by incubation at 4° C. overnight. After the plate was washed with PBS once, 150 μL/well of Block Ace (Snow Brand Milk Products Co., Ltd.) was added, followed by incubation at room temperature for 2 hours. After removal, the plate was washed with PBS once.
Then, 100 μL of the RPMI-8866 cells (2×10^6 cells/mL) and 100 of the test substance at each of various concentrations diluted with a binding buffer (DMEM containing 40 mM HEPES, 0.2% BSA, and 4 mM MnCl2) were added to the plate coated with the MAdCAM-1/Fc (5×10^5 cells/well) such that 50% human serum was contained at the final concentration. Then, incubation was allowed to proceed at 30° C. for 15 to 60 minutes. After the cells were bound to the wells, the plate was washed with PBS to remove unbound cells. A buffer C (PBS containing 1.5% Triton X-100) was added in an amount 50 μL/well to the plate to lyse the bound RPMI-8866 cells. After 30 μL of a substrate buffer (Promega, CytoTox 96 Non-Radioactive Cytotoxicity Assay) was added to 30 μL of the cell lysate, a reaction was allowed to proceed at room temperature in the dark for 30 minutes. After 30 μL of a stop solution (Promega, CytoTox 96 Non-Radioactive Cytotoxicity Assay) was added to each, and then an absorbance at 490 nm was measured using a plate reader. The absorbance obtained here represents a detection result of an activity of lactate dehydrogenase (LDH) eluted in the supernatant of each well, that is, the absorbance is proportional to the number of RPMI-8866 cells bound to the MAdCAM-1 and thus remaining on the plate. The test was performed in duplicate. Provided that the absorbance of the well containing no test substance was 100%, a cell binding rate with the test substance at each of the various concentrations was figured out, and a concentration IC50 which brought about 50% binding inhibition was calculated.

Row | IC50 | SMILES
1 | 10 nM | Cn1c(=O)n(-c2ccc(C[C@H](NC(=O)c3cc(F)c(NS(=O)(=O)c4ccc(NC(=O)C(C)(C)C)cc4)cc3F)C(=O)O)cc2)c(=O)c2ccncc21 [Compound A1, (2S)-2-[[4-[[4-(2,2-dimethylpropanoylamino)phenyl]sulfonylamino]-2,5-difluoro-benzoyl]amino]-3-[4-(1-methyl-2,4-dioxo-pyrido[3,4-d]pyrimidin-3-yl)phenyl]propanoic acid]
2 | 36 nM | CC(=O)Nc1ccc(S(=O)(=O)Nc2cc(F)c(C(=O)N[C@@H](Cc3ccc(-n4c(=O)c5ccncc5n(C)c4=O)cc3)C(=O)O)cc2F)cc1 [Compound A2]
3 | 10 nM | CCC(CC)C(=O)Nc1ccc(S(=O)(=O)Nc2cc(F)c(C(=O)N[C@@H](Cc3ccc(-n4c(=O)c5ccncc5n(C)c4=O)cc3)C(=O)O)cc2F)cc1 [Compound A3]
4 | 16 nM | CCC(CC)C(=O)Nc1ccc(S(=O)(=O)Nc2cc(F)c(C(=O)N[C@@H](Cc3ccc(-n4c(=O)c(C)c(C)n(C)c4=O)cc3)C(=O)O)cc2F)cc1 [Compound A4]
5 | 70 nM | Cn1c(=O)n(-c2ccc(C[C@H](NC(=O)c3cc(F)c(NS(=O)(=O)c4ccc(NC(=O)NC(C)(C)C)cc4)cc3F)C(=O)O)cc2)c(=O)c2ccncc21 [Compound A5]
6 | 14 nM | Cn1c(=O)n(-c2ccc(C[C@H](NC(=O)c3cc(F)c(NS(=O)(=O)c4ccc(NC(=O)C5CCNCC5)cc4)cc3F)C(=O)O)cc2)c(=O)c2ccncc21 [Compound A6, (2S)-2-[[2,5-difluoro-4-[[4-(piperidine-4-carbonylamino)phenyl]sulfonylamino]benzoyl]amino]-3-[4-(1-methyl-2,4-dioxo-pyrido[3,4-d]pyrimidin-3-yl)phenyl]propanoic acid]
7 | 28 nM | Cn1c(=O)n(-c2ccc(C[C@H](NC(=O)c3cc(F)c(NS(=O)(=O)c4ccc(NC(=O)c5ccncc5)cc4)cc3F)C(=O)O)cc2)c(=O)c2ccncc21 [Compound A7]
8 | 3.7 nM | Cc1c(C)n(C)c(=O)n(-c2ccc(C[C@H](NC(=O)c3cc(F)c(NS(=O)(=O)c4ccc(NC(=O)C(C)(C)C)cc4)cc3F)C(=O)O)cc2)c1=O [Compound A8]
9 | 4.5 nM | Cn1c(=O)n(-c2ccc(C[C@H](NC(=O)c3cc(F)c(NS(=O)(=O)c4ccc(NC(=O)C(C)(C)C)s4)cc3F)C(=O)O)cc2)c(=O)c2ccncc21 [Compound A9]
10 | 10 nM | Cc1c(C)n(C)c(=O)n(-c2ccc(C[C@H](NC(=O)c3cc(F)c(NS(=O)(=O)c4ccc(NC(=O)C(C)(C)C)s4)cc3F)C(=O)O)cc2)c1=O [Compound A10]
11 | 38 nM | Cc1c(C)n(C)c(=O)n(-c2ccc(C[C@H](NC(=O)c3cc(F)c(NS(=O)(=O)c4cc(NC(=O)C(C)(C)C)cs4)cc3F)C(=O)O)cc2)c1=O [Compound A11]
12 | 61 nM | Cn1c(=O)n(-c2ccc(C[C@H](NC(=O)c3cc(F)c(NS(=O)(=O)c4ccc(NC(=O)C(C)(C)C)c(F)c4)cc3F)C(=O)O)cc2)c(=O)c2ccncc21 [Compound A12]
13 | 12 nM | Cn1c(=O)n(-c2ccc(C[C@H](NC(=O)c3cc(F)c(NS(=O)(=O)c4ccc(NC(=O)C5CCOCC5)cc4)cc3F)C(=O)O)cc2)c(=O)c2ccncc21 [Compound A14]
14 | 14 nM | Cc1c(C)n(C)c(=O)n(-c2ccc(C[C@H](NC(=O)c3cc(F)c(NS(=O)(=O)c4ccc(NC(=O)C5CCOCC5)cc4)cc3F)C(=O)O)cc2)c1=O [Compound A15]
15 | 44 nM | COC1(C(=O)Nc2ccc(S(=O)(=O)Nc3cc(F)c(C(=O)N[C@@H](Cc4ccc(-n5c(=O)c6ccncc6n(C)c5=O)cc4)C(=O)O)cc3F)cc2)CC1 [Compound A16]
16 | 67 nM | COC1(C(=O)Nc2ccc(S(=O)(=O)Nc3cc(F)c(C(=O)N[C@@H](Cc4ccc(-n5c(=O)c(C)c(C)n(C)c5=O)cc4)C(=O)O)cc3F)cc2)CC1 [Compound A17]
17 | 9 nM | Cn1c(=O)n(-c2ccc(C[C@H](NC(=O)c3cc(F)c(NS(=O)(=O)c4ccc(NC(=O)C(C)(C)CO)cc4)cc3F)C(=O)O)cc2)c(=O)c2ccncc21 [Compound A18]
18 | 4.6 nM | Cc1c(C)n(C)c(=O)n(-c2ccc(C[C@H](NC(=O)c3cc(F)c(NS(=O)(=O)c4ccc(NC(=O)C(C)(C)C)cn4)cc3F)C(=O)O)cc2)c1=O [Compound A19]
19 | 17 nM | Cc1c(C)n(C)c(=O)n(-c2ccc(C[C@H](NC(=O)c3cc(F)c(NS(=O)(=O)c4ccc(NC(=O)C5(C(F)(F)F)CC5)cc4)cc3F)C(=O)O)cc2)c1=O [Compound A20]
20 | 7.2 nM | Cc1c(C)n(C)c(=O)n(-c2ccc(C[C@H](NC(=O)c3cc(F)c(NS(=O)(=O)c4ccc(NC(=O)C(C)(C)CO)cc4)cc3F)C(=O)O)cc2)c1=O [Compound A21]
21 | 25 nM | Cc1c(C)n(C)c(=O)n(-c2ccc(C[C@H](NC(=O)c3cc(F)c(NS(=O)(=O)c4ccc(NC(=O)C5(O)CC5)cc4)cc3F)C(=O)O)cc2)c1=O [Compound A22]
22 | 32 nM | Cn1c(=O)n(-c2ccc(C[C@H](NC(=O)c3cc(F)c(NS(=O)(=O)c4ccc(NC(=O)C5(O)CC5)cc4)cc3F)C(=O)O)cc2)c(=O)c2ccncc21 [Compound A23]
23 | 15 nM | Cn1c(=O)n(-c2ccc(C[C@H](NC(=O)c3cc(F)c(NS(=O)(=O)c4ccc(NC(=O)C5(C(F)(F)F)CC5)cc4)cc3F)C(=O)O)cc2)c(=O)c2ccncc21 [Compound A24]
24 | 48 nM | Cc1c(C)n(C)c(=O)n(-c2ccc(C[C@H](NC(=O)c3cc(F)c(NS(=O)(=O)c4ccc(NC(=O)C(C)(C)C)nc4)cc3F)C(=O)O)cc2)c1=O [Compound A25]
25 | 6.4 nM | Cn1c(=O)n(-c2ccc(C[C@H](NC(=O)c3cc(F)c(NS(=O)(=O)c4ccc(NC(=O)C(C)(C)C)cc4)cc3F)C(=O)O)cn2)c(=O)c2ccncc21 [Compound A26]
26 | 2.4 nM | Cn1c2c(c(=O)n(-c3ccc(C[C@H](NC(=O)c4cc(F)c(NS(=O)(=O)c5ccc(NC(=O)C(C)(C)C)cc5)cc4F)C(=O)O)cc3)c1=O)CCOC2 [Compound A27]
